# Measured values as given in patent US6908919B2, “Substituted polycyclic aryl and heteroaryl pyrazinones useful for selective inhibition of the coagulation cascade” (Pharmacia Corporation, priority 1999, dated 2005).
# Target: T1, recombinant soluble tissue factor and recombinant human factor VIIa (TF-VIIa) (Homo sapiens, UniProt P08709)
# T1 construct: conversion of coagulation factor VII to VIIa by Xa; purchased American Diagnostica, Greenwich Conn; host or cells: VIIa purchased; soluble TF made in house in E. coli
# Assay: TF-VIIa Assay
# Type: biochemical
# Details: at 30 µM inhibitor
# T1 sequence (P08709 61-212 limits assumed): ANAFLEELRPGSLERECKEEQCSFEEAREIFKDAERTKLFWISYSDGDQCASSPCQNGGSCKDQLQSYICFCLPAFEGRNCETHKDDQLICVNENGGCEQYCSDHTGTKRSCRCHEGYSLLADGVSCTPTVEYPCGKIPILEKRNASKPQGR
# T1 sequence (P08709 213-466 limits assumed): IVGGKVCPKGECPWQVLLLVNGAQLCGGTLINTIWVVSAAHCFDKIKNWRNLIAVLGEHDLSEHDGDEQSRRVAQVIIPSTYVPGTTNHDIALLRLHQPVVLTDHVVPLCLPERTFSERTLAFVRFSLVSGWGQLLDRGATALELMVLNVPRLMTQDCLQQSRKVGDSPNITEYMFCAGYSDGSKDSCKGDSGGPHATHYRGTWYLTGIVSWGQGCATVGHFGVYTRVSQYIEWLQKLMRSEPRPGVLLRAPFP
# T1 sequence (P13726 33-251 partner limits assumed): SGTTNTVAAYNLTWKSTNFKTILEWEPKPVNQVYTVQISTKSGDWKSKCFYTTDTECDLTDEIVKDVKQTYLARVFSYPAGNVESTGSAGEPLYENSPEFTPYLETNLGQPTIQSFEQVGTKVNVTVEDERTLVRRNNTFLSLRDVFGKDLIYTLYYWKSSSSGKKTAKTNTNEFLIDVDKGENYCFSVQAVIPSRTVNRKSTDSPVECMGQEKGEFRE
row,% Inhibition TF-VIIa (30 µM),SMILES
1,45%,N=C(N)c1ccc(CNC(=O)Cn2c(-c3ccccc3)c(Cl)nc(NCc3ccc(Cl)cc3Cl)c2=O)cc1 [1507-22]
2,38%,N=C(N)c1ccc(CNC(=O)Cn2c(-c3ccccc3)c(Cl)nc(NCc3cccc4ccccc34)c2=O)cc1 [1507-28]
3,32%,N=C(N)c1ccc(CNC(=O)Cn2c(-c3ccc(C(F)(F)F)cc3)c(Cl)nc(NC3CCC3)c2=O)cc1 [1515-20]
4,25%,N=C(N)c1ccc(CNC(=O)Cn2c(-c3ccccc3)c(Cl)nc(NC(Cc3ccccc3)c3ccccc3)c2=O)cc1 (centres unmarked) [1507-07]

# Same assay, conditions: read-out: IC50 TF-VIIa
row,SMILES,IC50
1,CC(C)Nc1nc(Cl)c(-c2cc(N)cc(C(=O)NCc3ccc4ccccc4c3)c2)n(CC(=O)NCc2ccc(C(=N)N)cc2)c1=O [Example 128-23],33.7 nM
2,CC(C)Nc1nc(Cl)c(-c2cc(N)cc(C(=O)NCC(c3ccccc3)c3ccccc3)c2)n(CC(=O)NCc2ccc(C(=N)N)cc2)c1=O [Example 128-22],52 nM
3,C[C@@H](Nc1nc(Cl)c(-c2cccc(N)c2)n(CC(=O)NCc2ccc(C(=N)N)cc2)c1=O)C(=O)O [Example 134],51 nM
4,CC(C)Nc1nc(Cl)c(-c2cc(N)cc(C(=O)O)c2)n(CC(=O)NCc2ccc(C(=N)N)cc2)c1=O [Example 123],20 nM

# Continued, values first:
row,IC50,SMILES
1,18.7 nM,CC(C)Nc1nc(Cl)c(-c2cc(N)cc(C(=O)NC3CCc4ccccc4C3)c2)n(CC(=O)NCc2ccc(C(=N)N)cc2)c1=O (centres unmarked) [Example 128-24]
2,9 nM,CC(C)Nc1nc(Cl)c(-c2cc(N)cc(C(=O)NCc3ccccc3Cl)c2)n(CC(=O)NCc2ccc(C(=N)N)cc2)c1=O [Example 128-10]

# Target: Human factor Xa (Homo sapiens, UniProt P00742)
# Assay: Xa Assay
# Type: biochemical
# Parameters: purchased Enzyme Research Laboratories, South Bend Ind
# Details: at 30 µM
# Human factor Xa, sequence (P00742 41-179 limits assumed): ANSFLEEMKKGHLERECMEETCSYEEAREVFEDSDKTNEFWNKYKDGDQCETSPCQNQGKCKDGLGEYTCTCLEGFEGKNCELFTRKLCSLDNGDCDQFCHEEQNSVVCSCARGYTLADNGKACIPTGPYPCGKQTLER
# Human factor Xa, sequence (P00742 235-488 limits assumed): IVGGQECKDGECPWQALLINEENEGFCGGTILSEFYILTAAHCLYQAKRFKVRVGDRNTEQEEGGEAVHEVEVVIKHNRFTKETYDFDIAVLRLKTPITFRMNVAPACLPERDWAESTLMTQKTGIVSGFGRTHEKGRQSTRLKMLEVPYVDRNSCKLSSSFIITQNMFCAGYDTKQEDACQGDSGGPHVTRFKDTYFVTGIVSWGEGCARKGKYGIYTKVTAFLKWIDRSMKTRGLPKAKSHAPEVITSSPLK
row,SMILES,% Inhibition Factor Xa (30 µM)
1,CCCNc1nc(Cl)c(-c2cccc(N)c2)n(CC(=O)NCc2ccc(C(=N)N)cc2F)c1=O [1543-35],8%
2,N=C(N)c1ccc(CNC(=O)Cn2c(-c3cccc(N)c3)c(Cl)nc(NC3CC3)c2=O)c(F)c1 [1543-33],14%
3,CC(C)(C)CCNc1nc(Cl)c(-c2ccccc2)n(CC(=O)NCc2ccc(C(=N)N)cc2)c1=O [Example 1517-41],0%
4,CCCC(CCC)Nc1nc(Cl)c(-c2ccccc2)n(CC(=O)NCc2ccc(C(=N)N)cc2)c1=O [Example 1517-26],0%
5,CCCCNc1nc(Cl)c(-c2cccc(N)c2)n(CC(=O)NCc2ccc(C(=N)N)cc2F)c1=O [1543-36],15%
6,N=C(N)c1ccc(CNC(=O)Cn2c(-c3cccc(N)c3)c(Cl)nc(NCCCO)c2=O)cc1 [1543-13],12%

# Next, values leading:
row,% Inhibition Factor Xa (30 µM),SMILES
1,19%,N=C(N)c1ccc(CNC(=O)Cn2c(-c3cccc(N)c3)c(Cl)nc(NCCCn3ccnc3)c2=O)cc1 [1543-07]
2,0%,CCCNc1nc(Cl)c(-c2ccccc2)n(CC(=O)NCc2ccc(C(=N)N)cc2)c1=O [Example 1517-33]
3,8%,CCNc1nc(Cl)c(-c2cccc(N)c2)n(CC(=O)NCc2ccc(C(=N)N)cc2F)c1=O [1543-31]
4,11%,CC(CNc1nc(Cl)c(-c2cccc(N)c2)n(CC(=O)NCc2ccc(C(=N)N)cc2)c1=O)N(C)C (centres unmarked) [1543-19]
5,0%,N=C(N)c1ccc(CNC(=O)Cn2c(-c3ccsc3)c(Cl)nc(NCCc3ccccc3)c2=O)cc1 [Example 1517-13]
6,0%,CCCCCNc1nc(Cl)c(-c2ccccc2)n(CC(=O)NCc2ccc(C(=N)N)cc2)c1=O [Example 1517-48]
7,0%,C[Si](C)(C)CNc1nc(Cl)c(-c2ccccc2)n(CC(=O)NCc2ccc(C(=N)N)cc2)c1=O [Example 1517-36]
8,0%,CC(C)N(C)c1nc(Cl)c(-c2ccccc2)n(CC(=O)NCc2ccc(C(=N)N)cc2)c1=O [Example 1517-31]

# Same assay, conditions: at 30 µM inhibitor
row,SMILES,% Inhibition Factor Xa (30 µM)
1,Cc1c(Cl)nc(NCc2ccncc2)c(=O)n1CC(=O)NCc1ccc(C(=N)N)cc1 [1471-3],0%
2,N=C(N)c1ccc(CNC(=O)Cn2c(-c3ccccc3)c(Cl)nc(NC(c3ccccc3)c3ccccc3)c2=O)cc1 [1507-35],28%
3,Cc1c(Cl)nc(NCCc2cccnc2)c(=O)n1CC(=O)NCc1ccc(C(=N)N)cc1 [1471-8],27%
4,N=C(N)c1ccc(CNC(=O)Cn2c(-c3ccc4ccccc4c3)c(Cl)nc(NCCc3ccccc3)c2=O)cc1 [Example 82],32% @ 30
5,C[C@H](C(=O)NCc1ccc(C(=N)N)cc1)n1c(-c2ccccc2)c(Cl)nc(NC2CCC2)c1=O [Example 1517-11],0%
6,COc1ccc(CCNc2nc(Cl)c(-c3ccccc3)n(CC(=O)NCc3ccc(C(=N)N)cc3)c2=O)cc1OC [1512-05],10%
7,Cc1c(Cl)nc(NCCc2ccncc2)c(=O)n1CC(=O)NCc1ccc(C(=N)N)cc1 [1471-5],12%
8,N=C(N)c1ccc(CNC(=O)Cn2c(-c3cccc(Cl)c3)c(Cl)nc(NCc3ccccc3)c2=O)cc1 [1471-25],31%
9,N=C(N)c1ccc(CNC(=O)Cn2c(-c3ccccc3)c(Cl)nc(NCc3ccc(C(F)(F)F)cc3F)c2=O)cc1 [1512-26],5%
10,CSc1ccc(N)cc1-c1c(Cl)nc(NC(C)C)c(=O)n1CC(=O)NCc1ccc(C(=N)N)cc1 [Example 76],0%
11,N=C(N)c1ccc(CNC(=O)Cn2c(-c3ccccc3)c(Cl)nc(NCCc3ccccn3)c2=O)cc1 [1512-47],13%
12,N=C(N)c1ccc(CNC(=O)Cn2c(-c3ccccc3)c(Cl)nc(NCCCN3CCCC3=O)c2=O)cc1 [1507-19],4%
13,N=C(N)c1ccc(CNC(=O)Cn2c(-c3ccccc3)c(Cl)nc(NCCc3ccc(Cl)c(Cl)c3)c2=O)cc1 [1507-44],9%
14,N=C(N)c1ccc(CNC(=O)Cn2c(-c3ccccc3)c(Cl)nc(NCc3ccccc3Cl)c2=O)cc1 [1507-03],21%
15,N=C(N)c1ccc(CNC(=O)Cn2c(-c3c(Cl)cccc3Cl)c(Cl)nc(NCc3ccccc3)c2=O)cc1 [Example 1517-06],0%
16,N=C(N)c1ccc(CNC(=O)Cn2c(-c3ccccc3)c(Cl)nc(NCC(c3ccccc3)c3ccccc3)c2=O)cc1 [1507-09],13%
17,Cc1cccc(-c2cnc(NCCc3ccccc3)c(=O)n2CC(=O)NCc2ccc(C(=N)N)cc2)c1 [Example 85],42% @ 30
18,N=C(N)c1ccc(CNC(=O)Cn2c(-c3cccc(Cl)c3)c(Cl)nc(NCCc3cccc(Cl)c3)c2=O)cc1 [1471-30],41%
19,CCCCNc1nc(Cl)c(-c2ccccc2)n(CC(=O)NCc2ccc(C(=N)N)cc2)c1=O [1512-14],7%

# Further lines, results first:
row,% Inhibition Factor Xa (30 µM),SMILES
1,4%,Cc1c(Cl)nc(NCCc2ccccc2)c(=O)n1CC(=O)NCc1ccc(C(=N)N)cc1 [1471-7]
2,16% @ 30,Cc1ccccc1-c1c(Cl)nc(NCCc2ccccc2)c(=O)n1CC(=O)NCc1ccc(C(=N)N)cc1 [Example 78]
3,10%,N=C(N)c1ccc(CNC(=O)Cn2c(-c3ccccc3)c(Cl)nc(NC3CCCCCC3)c2=O)cc1 [1512-16]
4,34%,N=C(N)c1ccc(CNC(=O)Cn2c(-c3ccc4c(c3)OCO4)c(Cl)nc(NCc3ccccc3)c2=O)cc1 [1471-41]
5,11%,N=C(N)c1ccc(CNC(=O)Cn2c(-c3ccccc3)c(Cl)nc(NCc3cc(C(F)(F)F)cc(C(F)(F)F)c3)c2=O)cc1 [1507-40]
6,10% @ 30,Cc1c(N)cccc1-c1cnc(NC(C)C)c(=O)n1CC(=O)NCc1ccc(C(=N)N)cc1 [Example 98]
7,6%,CN(C)CCNc1nc(Cl)c(-c2ccccc2)n(CC(=O)NCc2ccc(C(=N)N)cc2)c1=O [1512-15]
8,0%,N=C(N)c1ccc(CNC(=O)Cn2c(-c3cccc(N)c3)c(Cl)nc(NC3CCC3)c2=O)cc1F [Example 40]
9,0%,CC(C)Nc1ncc(-c2cccc(N)c2)n(CC(=O)NCc2ccc(C(=N)N)c(F)c2)c1=O [Example 43]
10,16%,N=C(N)c1ccc(CNC(=O)Cn2c(-c3ccccc3)c(Cl)nc(NCCC3=CCCCC3)c2=O)cc1 [1507-17]
11,0%,C[C@@H](C(=O)NCc1ccc(C(=N)N)cc1)n1c(-c2ccccc2)c(Cl)nc(NCc2ccccc2)c1=O [Example 1517-03]
12,4%,N=C(N)c1ccc(CNC(=O)Cn2c(-c3ccccc3)c(Cl)nc(NCCc3cccc(C(F)(F)F)c3)c2=O)cc1 [1512-41]
13,24%,N=C(N)c1ccc(CNC(=O)Cn2c(-c3ccc4c(c3)OCO4)c(Cl)nc(NCCc3ccncc3)c2=O)cc1 [1471-45]
14,9%,N=C(N)c1ccc(CNC(=O)Cn2c(-c3ccccc3)c(Cl)nc(NC3CCc4ccccc43)c2=O)cc1 (centres unmarked) [1507-02]
15,17%,N=C(N)c1ccc(CNC(=O)Cn2c(-c3ccc4c(c3)OCO4)c(Cl)nc(NCCc3cccnc3)c2=O)cc1 [1471-48]
16,13%,CC(C)Nc1nc(Cl)c(-c2ccc(Cl)nc2)n(CC(=O)NCc2ccc(C(=N)N)cc2F)c1=O [Example 74]
17,29%,N=C(N)c1ccc(CNC(=O)Cn2c(-c3ccccc3)c(Cl)nc(NCc3ccccc3)c2=O)cc1 [1471-9]
18,3%,COc1cccc(CNc2nc(Cl)c(-c3ccccc3)n(CC(=O)NCc3ccc(C(=N)N)cc3)c2=O)c1OC [1512-02]
19,5%,CCCCC(CC)Nc1nc(Cl)c(-c2ccccc2)n(CC(=O)NCc2ccc(C(=N)N)cc2)c1=O (centres unmarked) [1512-12]
20,23%,N=C(N)c1ccc(CNC(=O)Cn2c(-c3ccccc3)c(Cl)nc(NCCc3cccnc3)c2=O)cc1 [1471-16]

# Same assay, conditions: inhibitor at 100 µM
row,% Inhibition Factor Xa (100 µM),SMILES
1,6%,COc1ccc(-c2c(Cl)nc(NCCc3ccccc3)c(=O)n2CC(=O)NCCc2ccncc2)cc1 [Example E-0100]
2,0%,O=C(Cn1c(-c2ccc(Cl)cc2)c(Cl)nc(NCCN2CCOCC2)c1=O)NCCc1ccncc1 [Example E-0031]
